According to patent US20230338391A1, “TREATMENT FOR DEPRESSION” (TAKEDA PHARMACEUTICAL COMPANY LIMITED, priority 2020, published 2023):
Entries after “also recorded” stand apart in the source; their conditions may differ. Read-outs that look alike come from different tables or passages of the source.

Columns and labels:
[1] = Phase 1 single-rising dose (SRD, Part 1) plasma PK in healthy subjects; type: in vivo, human; details: for Vd/F / AUC(0-inf) / Cmax / Tmax / AUC(0-t): both sexes, human, plasma; for Tmax: po
Experimental: The study was designed to assess the safety, tolerability, PK, and PD of COMPOUND A. A total of 88 subjects were enrolled in 6 SRD and 5 SRD/MRD cohorts (n=8 per cohort). The study was composed of 2 parts.
In Part 1 of the study (SRD cohorts), a single oral tablet dose of COMPOUND A (0.3, 1, 3, 5, 9, or 18 mg) or matching placebo was administered on Day 1 followed by safety, tolerability, PK, and PD assessments. In each SRD cohort of 8 subjects (6 active: 2 placebo), sentinel dosing was used whereby 2 initial subjects (1 active: 1 placebo) were administered study drug to evaluate safety and tolerability before dosing in the remaining subjects (5 active: 1 placebo) after an interval of at least 24 hours. Dosing in the remaining 6 subjects from each cohort was staggered such that only 3 subjects were dosed in 1 day, with the last 3 subjects being dosed after an additional 24-hour interval. The data from each cohort were reviewed sequentially to ensure adequate safety and tolerability before administering the next dose level. Study drug was administered after an overnight fast of at least 10 hours. Subjects were confined in the study unit for 5 days, from Check-in on Day −1 until approximately 96 hours after dosing. Subjects in Cohorts 1 to 5 (0.3-9 mg) returned to the clinic on Days 6 and 7 and subjects in Cohort 6 (18 mg) returned on Days 6, 7 and 8 for additional PK blood sample collections. To allow for a preliminary assessment of the effect of food on the PK of COMPOUND A, subjects in SRD Cohort 3 (3 mg) returned to the clinic to receive study drug under fed conditions (standard high-fat meal, as defined by the Food and Drug Administration (“FDA”)), after the safety and tolerability of the higher dose (5 mg) under fasted conditions had been established.
For all cohorts in Parts 1 and 2, serial PK blood samples were collected pre- and post-dose on Day 1 to measure plasma concentrations of COMPOUND A and its metabolites. For all SRD/MRD cohorts in Part 2, urine samples were collected pre- and post-dose on Day 1 and post-dose on Day 18 to measure concentrations of COMPOUND A and its metabolites.
For Part 1 of the study, all 36 subjects who received COMPOUND A were included in the PK set. For Part 2 of the study, all 30 subjects who received COMPOUND A were included in the PK set.
Referring now to FIG. 2, mean plasma concentration-time profiles (linear and semilog scales) of COMPOUND A were determined following single oral administration of COMPOUND A.

CNS excitability = test: TMS crossover study of CNS PD activity in healthy subjects
[2] = single oral 0.3 mg, mean, N = 6
[3] = 0.5 mg and 6 mg single oral doses

CC1=CN2CCS(=O)(=O)N=C2C(c2ccc(OC3CCCCC3)cc2)=N1 [COMPOUND A, 9-[4-(Cyclohexyloxy)phenyl]-7-methyl-3,4-dihydropyrazino[2,1-c][1,2,4]thiadiazine 2,2-dioxide]
Vd/F ([1]; oral, range across single dose levels, read-out: mean Vz/F): 95.1 to 133 L | AUC(0-inf) ([1]; oral, range across the 0.3 to 18 mg single dose range, read-out: mean AUC∞): 148 to 8880 ng·h/mL | Cmax ([1]; oral, range across the 0.3 to 18 mg single dose range, read-out: mean plasma Cmax): 3.63 to 126 ng/mL | Tmax ([1]; 0.3 mg, single oral 0.3 mg, median, N = 6, read-out: tmax): 1.25 h | Tmax ([1]; 1 mg, single oral 1 mg, median, N = 6, read-out: tmax): 2.5 h | Tmax ([1]; 3 mg, single oral 3 mg, median, N = 6, read-out: tmax): 1.75 h | Tmax ([1]; 5 mg, single oral 5 mg, median, N = 6, read-out: tmax): 2.75 h | Tmax ([1]; 9 mg, single oral 9 mg, median, N = 6, read-out: tmax): 5.5 h | Tmax ([1]; 18 mg, range across single oral doses 0.3, 1, 3, 5, 9, 18 mg, read-out: median tmax): 1.25 to 5.5 h | Tmax ([1]; 18 mg, single oral 18 mg, median, N = 6, read-out: tmax): 5.05 h | AUC(0-t) [1, 2]: 126 ng·h/mL | AUC(0-inf) ([1]; single oral 0.3 mg, mean, N = 6, read-out: AUC∞): 148 ng·h/mL | Cmax ([1]; single oral 0.3 mg, mean, N = 6, read-out: Cmax): 3.63 ng/mL | Vd/F ([1]; single oral 0.3 mg, mean, N = 6, read-out: Vz/F): 98.8 L | AUC(0-t) ([1]; single oral 1 mg, mean, N = 6): 565 ng·h/mL | AUC(0-inf) ([1]; single oral 1 mg, mean, N = 6, read-out: AUC∞): 642 ng·h/mL | Cmax ([1]; single oral 1 mg, mean, N = 6, read-out: Cmax): 10.3 ng/mL | Vd/F ([1]; single oral 1 mg, mean, N = 6, read-out: Vz/F): 95.1 L | AUC(0-t) ([1]; single oral 3 mg, mean, N = 6): 1340 ng·h/mL | AUC(0-inf) ([1]; single oral 3 mg, mean, N = 6, read-out: AUC∞): 1460 ng·h/mL | Cmax ([1]; single oral 3 mg, mean, N = 6, read-out: Cmax): 27.1 ng/mL | Vd/F ([1]; single oral 3 mg, mean, N = 6, read-out: Vz/F): 114 L | AUC(0-t) ([1]; single oral 5 mg, mean, N = 6): 2320 ng·h/mL | AUC(0-inf) ([1]; single oral 5 mg, mean, N = 6, read-out: AUC∞): 2650 ng·h/mL | Cmax ([1]; single oral 5 mg, mean, N = 6, read-out: Cmax): 45.3 ng/mL | Vd/F ([1]; single oral 5 mg, mean, N = 6, read-out: Vz/F): 115 L | AUC(0-t) ([1]; single oral 9 mg, mean, N = 6): 4490 ng·h/mL | AUC(0-inf) ([1]; single oral 9 mg, mean, N = 6, read-out: AUC∞): 5380 ng·h/mL | Cmax ([1]; single oral 9 mg, mean, N = 6, read-out: Cmax): 69.5 ng/mL | Vd/F ([1]; single oral 9 mg, mean, N = 6, read-out: Vz/F): 120 L | AUC(0-t) ([1]; single oral 18 mg, mean, N = 6): 8080 ng·h/mL | AUC(0-inf) ([1]; single oral 18 mg, mean, N = 6, read-out: AUC∞): 8880 ng·h/mL | Cmax ([1]; single oral 18 mg, mean, N = 6, read-out: Cmax): 126 ng/mL | Vd/F ([1]; single oral 18 mg, mean, N = 6, read-out: Vz/F): 133 L | CL/F [1, 2]: 2.17 L/h | t1/2z [1, 2]: 33.1 h | CL/F ([1]; single oral 1 mg, mean, N = 6): 1.79 L/h | t1/2z ([1]; single oral 1 mg, mean, N = 6): 41.3 h | CL/F ([1]; single oral 3 mg, mean, N = 6): 2.18 L/h | t1/2z ([1]; single oral 3 mg, mean, N = 6): 37.9 h | CL/F ([1]; single oral 5 mg, mean, N = 6): 2.08 L/h | t1/2z ([1]; single oral 5 mg, mean, N = 6): 42.5 h | CL/F ([1]; single oral 9 mg, mean, N = 6): 1.98 L/h | t1/2z ([1]; single oral 9 mg, mean, N = 6): 47.8 h | CL/F ([1]; single oral 18 mg, mean, N = 6): 2.29 L/h | t1/2z ([1]; single oral 18 mg, mean, N = 6): 44.1 h | SICI measurements and other secondary endpoints (CNS excitability; [3]): not statistically significant | changes from baseline in the rMT, single-pulse TMS (CNS excitability; [3]): not statistically significant | change from baseline of LICI 300 ms (CNS excitability; 0.5 mg single oral dose, 2.5 hours post-dose): statistically significant PD effect | peak-to-peak amplitude of the MEP, single-pulse TMS, change from baseline vs placebo (CNS excitability; 6 mg single oral dose, 2.5 hours post-dose, stimulation intensity 120% of baseline rMT): statistically significant difference from baseline when compared with placebo; also recorded: statistically significant PD effect
